Measurements reported in article PMC11062899, “De novo development of small cyclic peptides that are orally bioavailable” (Nature Chemical Biology, 2023).

Target: human α-thrombin (Homo sapiens, UniProt P00734)
Test: Sub-library screen for active and permeable cyclic peptides (PAMPA plus thrombin inhibition)
Assay type: biochemical
Settings: crude, slopes normalized to DMSO; for Residual thrombin activity: Top sample: PAMPA acceptor well after 14 h, 5 μM donor; for Residual thrombin activity: Equilibrated sample: donor sample diluted to theoretical equilibrium (1 μM in assay)
Summary of the method: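 Acylated cyclic peptides at 5 μM in PBS pH 7.4 with 5% DMSO were run through PAMPA for 14 h at room temperature. Acceptor wells and a diluted donor sample at 3 μM, representing maximum permeability, were preincubated 10 min with human α-thrombin (6 nM stock). Z-Gly-Gly-Arg-AMC (150 μM stock) fluorescence was then read for 30 min at 25 °C, and inhibition was taken against a no-peptide control.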

Structure (SMILES)	Residual thrombin activity: Top sample	Residual thrombin activity: Equilibrated sample
O=C1CSCCNC(=O)C[C@H]2CCCN2C(=O)[C@H](Cc2ccc(Cl)cc2)NC(=O)[C@@H](NC(=O)c2ccc(Cl)s2)CCSC1 [C2-X34-L7]	104.6	101.4
Cc1cccc(C[C@@H]2NC(=O)[C@@H](NC(=O)c3ccc(Cl)s3)CSCc3ccccc3CSCCNC(=O)C[C@H]3CCCN3C2=O)c1 [C1-X37-L6]	93.2	84.4
Cc1cccc(C[C@@H]2NC(=O)[C@@H](NC(=O)c3ccc(Cl)s3)CCSC/C=C/CSCCNC(=O)C[C@H]3CCCN3C2=O)c1 [C2-X37-L4]	90.6	77.5
O=C1CSCCC[C@H](NC(=O)c2ccc(Cl)s2)C(=O)N[C@H](Cc2ccccc2)C(=O)N2CCC[C@@H]2CC(=O)NCCSC1 [C3-X31-L7]	102.1	99.4
O=C1C[C@H]2CCCN2C(=O)[C@H](Cc2ccc(C(F)(F)F)cc2)NC(=O)[C@@H](NC(=O)c2ccc(Cl)s2)CSC/C=C/CSCCN1 [C1-X36-L4]	96.8	92.7
O=C1C[C@H]2CCCN2C(=O)[C@H](Cc2ccc(Cl)cc2)NC(=O)[C@@H](NC(=O)c2ccc(Cl)s2)CCSCc2cccc(c2)CSCCN1 [C2-X34-L5]	106.3	106.4
N#Cc1ccc(C[C@@H]2NC(=O)[C@@H](NC(=O)c3ccc(Cl)s3)CCCSCc3cccc(c3)CSCCNC(=O)C[C@H]3CCCN3C2=O)cc1 [C3-X35-L5]	107.1	100.9
Cc1cccc(C[C@@H]2NC(=O)[C@@H](NC(=O)c3ccc(Cl)s3)CCCSCc3ccc(cc3)CSCCNC(=O)C[C@H]3CCCN3C2=O)c1 [C3-X37-L3]	90.5	68.7
COc1ccc(C[C@@H]2NC(=O)[C@@H](NC(=O)c3ccc(Cl)s3)CCSCc3cccc(n3)CSCCNC(=O)C[C@H]3CCCN3C2=O)cc1 [C2-X33-L1]	95.4	94.0
COc1ccc(C[C@@H]2NC(=O)[C@@H](NC(=O)c3ccc(Cl)s3)CCCSCc3ccc(cc3)CSCCNC(=O)C[C@H]3CCCN3C2=O)cc1 [C3-X33-L3]	102.2	103.1
O=C1C[C@H]2CCCN2C(=O)[C@H](Cc2ccccc2)NC(=O)[C@@H](NC(=O)c2ccc(Cl)s2)CSCCS(=O)(=O)CCSCCN1 [C1-X5-L2]	88.1	37.4
O=C1C[C@H]2CCCN2C(=O)[C@H](Cc2ccc(Cl)cc2)NC(=O)[C@@H](NC(=O)c2ccc(Cl)s2)CCSCc2cccc(n2)CSCCN1 [C2-X34-L1]	87.1	93.9
N#Cc1ccc(C[C@@H]2NC(=O)[C@@H](NC(=O)c3ccc(Cl)s3)CCSCCS(=O)(=O)CCSCCNC(=O)C[C@H]3CCCN3C2=O)cc1 [C2-X35-L2]	102.9	100.1
Cc1cccc(C[C@@H]2NC(=O)[C@@H](NC(=O)c3ccc(Cl)s3)CCSCc3cccc(c3)CSCCNC(=O)C[C@H]3CCCN3C2=O)c1 [C2-X37-L5]	104.6	95.0
O=C1C[C@H]2CCCN2C(=O)[C@H](Cc2ccc(Cl)cc2)NC(=O)[C@@H](NC(=O)c2ccc(Cl)s2)CCSC/C=C/CSCCN1 [C2-X34-L4]	98.6	98.5
O=C1C[C@H]2CCCN2C(=O)[C@H](Cc2ccc(C(F)(F)F)cc2)NC(=O)[C@@H](NC(=O)c2ccc(Cl)s2)CSCc2cccc(n2)CSCCN1 [C1-X36-L1]	93.6	98.9
O=C1C[C@H]2CCCN2C(=O)[C@H](Cc2ccc(Cl)cc2)NC(=O)[C@@H](NC(=O)c2ccc(Cl)s2)CSCc2cccc(c2)CSCCN1 [C1-X34-L5]	97.0	98.5
O=C1C[C@H]2CCCN2C(=O)[C@H](Cc2ccc(C(F)(F)F)cc2)NC(=O)[C@@H](NC(=O)c2ccc(Cl)s2)CCSCc2cccc(c2)CSCCN1 [C2-X36-L5]	106.2	106.1
O=C1C[C@H]2CCCN2C(=O)[C@H](Cc2ccc(Cl)cc2)NC(=O)[C@@H](NC(=O)c2ccc(Cl)s2)CSCCS(=O)(=O)CCSCCN1 [C1-X34-L2]	95.9	98.3

Structure (SMILES)	Residual thrombin activity: Top sample	Residual thrombin activity: Equilibrated sample
O=C1C[C@H]2CCCN2C(=O)[C@H](Cc2ccc(C(F)(F)F)cc2)NC(=O)[C@@H](NC(=O)c2ccc(Cl)s2)CCSCc2ccc(cc2)CSCCN1 [C2-X36-L3]	95.8	101.3
COc1ccc(C[C@@H]2NC(=O)[C@@H](NC(=O)c3ccc(Cl)s3)CCSCc3ccc(cc3)CSCCNC(=O)C[C@H]3CCCN3C2=O)cc1 [C2-X33-L3]	100.8	99.6
CN1C(=O)[C@@H](NC(=O)c2ccc(Cl)s2)CCSC/C=C/CSCCNC(=O)C[C@H]2CCCN2C(=O)[C@@H]1Cc1ccccc1 [C2-X32-L4]	99.0	101.4
Cc1cccc(C[C@@H]2NC(=O)[C@@H](NC(=O)c3ccc(Cl)s3)CSCc3ccc(cc3)CSCCNC(=O)C[C@H]3CCCN3C2=O)c1 [C1-X37-L3]	95.4	90.2
N#Cc1ccc(C[C@@H]2NC(=O)[C@@H](NC(=O)c3ccc(Cl)s3)CCSCc3cccc(n3)CSCCNC(=O)C[C@H]3CCCN3C2=O)cc1 [C2-X35-L1]	95.8	96.1
CN1C(=O)[C@@H](NC(=O)c2ccc(Cl)s2)CSCc2cccc(n2)CSCCNC(=O)C[C@H]2CCCN2C(=O)[C@@H]1Cc1ccccc1 [C1-X32-L1]	87.6	99.6
COc1ccc(C[C@@H]2NC(=O)[C@@H](NC(=O)c3ccc(Cl)s3)CSC/C=C/CSCCNC(=O)C[C@H]3CCCN3C2=O)cc1 [C1-X33-L4]	95.0	98.0
COc1ccc(C[C@@H]2NC(=O)[C@@H](NC(=O)c3ccc(Cl)s3)CCSCCS(=O)(=O)CCSCCNC(=O)C[C@H]3CCCN3C2=O)cc1 [C2-X33-L2]	98.8	98.9
CN1C(=O)[C@@H](NC(=O)c2ccc(Cl)s2)CCCSCc2cccc(n2)CSCCNC(=O)C[C@H]2CCCN2C(=O)[C@@H]1Cc1ccccc1 [C3-X32-L1]	99.5	98.5
O=C1C[C@H]2CCCN2C(=O)[C@H](Cc2ccc(Cl)cc2)NC(=O)[C@@H](NC(=O)c2ccc(Cl)s2)CCCSCCS(=O)(=O)CCSCCN1 [C3-X34-L2]	98.4	94.5
O=C1C[C@H]2CCCN2C(=O)[C@H](Cc2ccc(Cl)cc2)NC(=O)[C@@H](NC(=O)c2ccc(Cl)s2)CSC/C=C/CSCCN1 [C1-X34-L4]	98.7	91.7
CN1C(=O)[C@@H](NC(=O)c2ccc(Cl)s2)CSCc2ccccc2CSCCNC(=O)C[C@H]2CCCN2C(=O)[C@@H]1Cc1ccccc1 [C1-X32-L6]	91.7	86.4
O=C1C[C@H]2CCCN2C(=O)[C@H](Cc2ccc(Cl)cc2)NC(=O)[C@@H](NC(=O)c2ccc(Cl)s2)CCCSCc2ccc(cc2)CSCCN1 [C3-X34-L3]	101.2	96.4
O=C1C[C@H]2CCCN2C(=O)[C@@H](Cc2ccccc2)NC(=O)[C@@H](NC(=O)c2ccc(Cl)s2)CCSCc2cccc(c2)CSCCN1 [C2-X31-L5]	105.0	96.6
O=C1CSCCNC(=O)C[C@H]2CCCN2C(=O)[C@@H](Cc2ccccc2)NC(=O)[C@@H](NC(=O)c2ccc(Cl)s2)CSC1 [C1-X31-L7]	96.8	96.3
CN1C(=O)[C@@H](NC(=O)c2ccc(Cl)s2)CCSCCS(=O)(=O)CCSCCNC(=O)C[C@H]2CCCN2C(=O)[C@@H]1Cc1ccccc1 [C2-X32-L2]	93.7	100.8
Cc1cccc(C[C@@H]2NC(=O)[C@@H](NC(=O)c3ccc(Cl)s3)CSC/C=C/CSCCNC(=O)C[C@H]3CCCN3C2=O)c1 [C1-X37-L4]	87.8	60.4
O=C1C[C@H]2CCCN2C(=O)[C@H](Cc2ccccc2)NC(=O)[C@@H](NC(=O)c2ccc(Cl)s2)CCSCc2cccc(n2)CSCCN1 [C2-X5-L1]	56.1	37.8
